Assay in all cases: NCI anticancer screen, dose series, 48 h
The test system of test [1] is SN12C.
Test [2] concerns SK-MEL-28.
Test [3] has as its system OVCAR-4.
Test [4] deals with UO-31.
Test [5] has as its system MDA-MB-435.
Test [6] has as its system OVCAR-8.
Test [7] concerns NCI-H226.
For test [8], the system named is SK-MEL-2.
Test [9] deals with A549.
Test [10] has as its system NCI/ADR-RES.
The test system of test [11] is CCRF-CEM.
In test [12] the test system is LOX IMVI.
For test [13], the system named is 786-0.
For test [14], the system named is Malme-3M.
For test [15], the system named is M14.
Test [16] concerns A498.
In test [17] the test system is EKVX.
Test [18] relates to NCI-H23.
The subject of test [19] is UACC-62.
The subject of test [20] is TK-10.

The text below walks through data of ChEMBL document CHEMBL1201862, “PubChem BioAssay data set” (2004).

SMILES strings stand for the structures.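 Results reflect a 48-hour exposure of cells in 96-well plates to compound at five concentrations. Here, GI50 denotes the concentration required for 50% inhibition of growth.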 Active and inactive are the calls of the source. Rule as the data show it: active = GI50 up to about 1.1 µM and inactive = higher.

`COc1cc(C2CC(C)(N3CCCC3)Oc3cc4c(cc32)OCO4)cc(OC)c1OC` (stereo not drawn): the GI50 in test [1] is 0.288 µM (active); in [2], 0.569 µM (active); in test [3] it was 19.5 µM (inactive); in [4] it was 0.624 µM (active); in test [5], 0.0211 µM (active); in test [6], 0.524 µM (active). In addition, the GI50 in test [7] was 4.69 µM (inactive); in [8] it was 0.408 µM (active); in test [9] it was 0.462 µM (active); in [10], 0.582 µM (active); in test [11], 0.184 µM (active); in test [12], 0.426 µM (active). In addition, the GI50 is 0.383 µM (active) in [13]; 0.21 µM (active) in test [14]; 0.394 µM (active) in test [15]; 0.578 µM (active) in test [16]; 0.456 µM (active) in test [17].

Regarding `C=CCNC(=S)N/C=C(\C#N)C(N)=O`, the GI50 in [1], in test [2], in test [3], in [4], in test [5] and in test [6] was > 100 µM (inactive) in each case. Further, the GI50 in [7], in test [18], in test [8], in [9], in test [19] and in test [10] was > 100 µM (inactive) in each case. Moreover, the GI50 in test [11], in test [12], in test [13], in test [14], in [15] and in [16] was > 100 µM (inactive) throughout. In [17], the GI50 was > 100 µM (inactive).

For the molecule `C=CCOc1ccc(C2C(C(=O)OC)C(=O)CC(O)(c3ccccc3)C2C(=O)OC)cc1OC` (stereo not drawn), the GI50 in test [1] is 41.7 µM (inactive); in test [20] it was 33.7 µM (inactive); in [2] it was 41 µM (inactive); in [3], 23.6 µM (inactive); in test [4], 22.4 µM (inactive); in test [5], 41.1 µM (inactive). For the same molecule, the GI50 in test [6] is 19.7 µM (inactive); in [7] it was 22.4 µM (inactive); in test [18], 31.8 µM (inactive); in test [8] it was 26.4 µM (inactive); in test [9], 34.4 µM (inactive); in test [19], 27.4 µM (inactive). For the same molecule, the GI50 in test [10] is 22.8 µM (inactive); in [11], 30.9 µM (inactive); in test [12], 40.1 µM (inactive); in test [13] it was 17 µM (inactive); in test [14] it was 31.6 µM (inactive); in test [16] it was 22.8 µM (inactive). In test [17], the GI50 was 62.7 µM (inactive).

With `N#CC1(C#N)NC(c2cccnc2)C(C#N)(C#N)NC1c1cccnc1` (stereo not drawn), the GI50 in test [1], in [20], in test [2], in [3], in test [5] and in test [6] was > 100 µM (inactive) throughout. The GI50 in test [7], in test [18], in test [8], in [9], in test [19] and in test [10] was > 100 µM (inactive) in each case. For the same molecule, the GI50 in test [11], in test [12], in test [13], in [14], in [15] and in [16] was > 100 µM (inactive) in each case. Further, the GI50 in [17] is > 100 µM (inactive).

On to `Cc1cc2nc3c(C#N)c4c(c(-c5ccc(Cl)cc5)n3c2cc1C)CCC4`, for which the GI50 is 30.3 µM (inactive) in test [1]; 22.1 µM (inactive) in [20]; 23.7 µM (inactive) in [2]; 38.5 µM (inactive) in [3]; 19.9 µM (inactive) in test [4]; 22.5 µM (inactive) in [5]. Also, the GI50 in [7] was 21.1 µM (inactive); in test [18], 19.1 µM (inactive); in test [8], 19 µM (inactive); in [9], 34.5 µM (inactive); in test [19], 18.4 µM (inactive); in test [10], 41.1 µM (inactive). The GI50 in [11] was 24.2 µM (inactive); in test [12], 30.2 µM (inactive); in test [13], 19.4 µM (inactive); in [14] it was 23.3 µM (inactive); in test [15], 17.5 µM (inactive); in test [16], 28.1 µM (inactive). For the same molecule, the GI50 in test [17] is 24.2 µM (inactive).

Consider `CC(C)(Cc1ccccc1)NC1=NCCO1`, for which the GI50 in [20], in test [2], in test [3], in [4], in test [5] and in test [6] was > 100 µM (inactive) each time. Further, the GI50 in [7], in test [18], in test [8], in test [9], in test [19] and in test [10] was > 100 µM (inactive) in each case. Moreover, the GI50 in test [11], in test [12], in test [13], in test [14], in [15] and in [16] was > 100 µM (inactive) in each case. Besides, the GI50 in test [17] is > 100 µM (inactive).

Turning to `N#Cc1nc(/C=C/c2ccccc2)oc1N`, the GI50 in [1] is > 100 µM (inactive); in test [20], > 100 µM (inactive); in test [2] it was > 100 µM (inactive); in [3], 20.7 µM (inactive); in test [4] it was 7.26 µM (inactive); in [5] it was > 100 µM (inactive). Besides, the GI50 in [6], in test [7], in test [18], in test [8], in test [9] and in test [10] was > 100 µM (inactive) throughout. Also, the GI50 in test [11], in [12], in test [13], in test [14], in [15] and in test [16] was > 100 µM (inactive) each time. Besides, the GI50 in test [17] is > 100 µM (inactive).

Take `O=C1N/C(=N/N=C/c2c[nH]c3ccccc23)N/C1=C\c1c[nH]c2ccccc12`: the GI50 in test [1] was 34.9 µM (inactive); in [20] it was 94.2 µM (inactive); in test [2] it was 22.1 µM (inactive); in [3] it was 26.9 µM (inactive); in [5], 24.5 µM (inactive); in test [6] it was 15.8 µM (inactive). The GI50 in test [7] was 17 µM (inactive); in test [18] it was 18.2 µM (inactive); in test [8], 20.3 µM (inactive); in test [9] it was 18.9 µM (inactive); in test [19] it was 19.7 µM (inactive); in [10], 27.3 µM (inactive). For the same molecule, the GI50 in [11] is 7.74 µM (inactive); in test [12], 17.4 µM (inactive); in [13] it was 17.8 µM (inactive); in test [14], 15.5 µM (inactive); in [15], 29 µM (inactive); in test [16] it was 12.7 µM (inactive). The GI50 in test [17] was 25.6 µM (inactive).

`O=c1[nH]c(=S)c2cc3c(=S)[nH]c(=O)n(CCO)c3nc2n1CCO`: the GI50 in test [1], in [20], in [2], in test [3], in [4] and in test [5] was > 100 µM (inactive) each time. Further, the GI50 in [6], in [7], in test [18], in test [8], in [9] and in test [10] was > 100 µM (inactive) throughout. Further, the GI50 in test [11], in test [12], in test [13], in [14], in [15] and in test [16] was > 100 µM (inactive) each time. Moreover, the GI50 in test [17] is > 100 µM (inactive).

On to `O=C1OC(C2OC(=O)c3cc(O)c(O)c(O)c3-c3c(O)c(O)c4oc(=O)c5c(c(O)c(O)c6oc(=O)c3c4c65)-c3c(cc(O)c(O)c3O)C(=O)OCC2O)C2OC(=O)c3c(c(O)c(O)c(O)c3[C@H]2O)-c2c1cc(O)c(O)c2O` (stereo partly drawn), for which the GI50 in test [1] was 15.9 µM (inactive); in test [2] it was 98.2 µM (inactive); in test [3], 16.1 µM (inactive); in test [4], 16.4 µM (inactive); in test [5], 14 µM (inactive); in test [6] it was 20.2 µM (inactive). Further, the GI50 was 16.8 µM (inactive) in test [7]; 16.6 µM (inactive) in test [18]; 31.6 µM (inactive) in test [8]; 20.2 µM (inactive) in [9]; 22.9 µM (inactive) in test [19]; 21.8 µM (inactive) in [10]. Besides, the GI50 was 10.9 µM (inactive) in [11]; 11.5 µM (inactive) in [12]; 18.2 µM (inactive) in [13]; 31.6 µM (inactive) in test [14]; 16.4 µM (inactive) in [15]; > 100 µM (inactive) in test [16]. Further, the GI50 in [17] is 13 µM (inactive).
